The values below come from publication PMC9503132, “Development of Halogenated-Chalcones Bearing with Dimethoxy Phenyl Head as Monoamine Oxidase-B Inhibitors” (Pharmaceuticals, 2022).

In brackets after ≈: the same amount, converted by molar mass. Read-outs that look alike come from different tables or passages of the source.

The target of one data set is T1, MAO-A (Homo sapiens, UniProt P21397).
T1 construct: purchased Sigma-Aldrich
T1 sequence (P21397 1-527): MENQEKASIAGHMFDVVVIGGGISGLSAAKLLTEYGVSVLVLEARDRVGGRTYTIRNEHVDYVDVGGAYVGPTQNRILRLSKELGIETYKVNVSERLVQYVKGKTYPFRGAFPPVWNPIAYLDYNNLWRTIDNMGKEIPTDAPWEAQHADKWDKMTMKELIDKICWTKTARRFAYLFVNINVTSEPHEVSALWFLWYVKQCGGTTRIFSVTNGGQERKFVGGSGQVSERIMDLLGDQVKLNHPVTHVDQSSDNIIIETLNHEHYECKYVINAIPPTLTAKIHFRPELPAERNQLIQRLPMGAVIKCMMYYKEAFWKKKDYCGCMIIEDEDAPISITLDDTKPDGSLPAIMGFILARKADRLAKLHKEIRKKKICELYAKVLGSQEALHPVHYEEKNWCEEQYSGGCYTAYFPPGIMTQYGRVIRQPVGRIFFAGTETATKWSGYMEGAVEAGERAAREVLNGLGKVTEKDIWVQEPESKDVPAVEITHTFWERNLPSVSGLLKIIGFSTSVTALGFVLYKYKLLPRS
Put plainly: MAO-A inhibition assay (recombinant enzyme, kynuramine substrate). It is filed as biochemical. The settings on record: recombinant MAO-A, kynuramine 0.06 mM; for remaining activity at 10 µM: 10 µM compound, read-out: Residual Activity at 10 µM (%) MAO-A; for IC50: read-out: IC50 (µM) MAO-A. On the procedure:
(§1) Recombinant MAO-A and MAO-B were used to test the MAO inhibitory activity using the substrates kynuramine and benzylamine (0.06 mM and 0.3 mM, respectively). […] Chemicals were from Sigma-Aldrich.
(§2) MAO-A At 10 µM, compounds’ inhibitory effects on MAOs were initially recorded. […] The SI values of MAO-B were calculated by dividing the IC50 values for MAO-A and those for MAO-B. The MAO-B was used to study the kinetics of substances DM2 or DM18 at five different substrate concentrations. By using the LB plots and their secondary plots at three different inhibitor doses, the inhibition patterns were examined.

Data set [1] has as its target T2, MAO-B (Homo sapiens, UniProt P27338).
T2 construct: purchased Sigma-Aldrich
T2 sequence (P27338 1-520): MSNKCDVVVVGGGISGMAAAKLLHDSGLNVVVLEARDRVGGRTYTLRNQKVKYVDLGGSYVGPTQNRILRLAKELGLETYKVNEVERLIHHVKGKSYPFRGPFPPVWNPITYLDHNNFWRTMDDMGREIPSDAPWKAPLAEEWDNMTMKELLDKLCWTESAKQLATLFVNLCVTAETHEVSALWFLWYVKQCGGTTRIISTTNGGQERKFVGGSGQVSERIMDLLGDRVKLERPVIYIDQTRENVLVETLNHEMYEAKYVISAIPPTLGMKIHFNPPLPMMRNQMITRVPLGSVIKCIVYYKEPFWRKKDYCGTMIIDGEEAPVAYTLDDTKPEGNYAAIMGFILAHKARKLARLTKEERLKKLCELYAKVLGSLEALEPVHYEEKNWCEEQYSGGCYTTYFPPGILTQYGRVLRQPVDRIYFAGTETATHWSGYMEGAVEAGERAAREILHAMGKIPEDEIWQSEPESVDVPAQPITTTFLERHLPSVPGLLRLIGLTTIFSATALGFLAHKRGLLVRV
Kind of data set: MAO-B kinetic study (Lineweaver-Burk and secondary plots). It is filed as biochemical. Conditions: for Inhibition pattern of MAO-B: Lineweaver-Burk plots, five substrate and three inhibitor concentrations; for Ki: secondary plots of LB slopes vs. inhibitor concentration. On the procedure: as §2

The target of data set [2] is T2, MAO-B. Put plainly: Reversibility of MAO-B inhibition by dialysis. It is filed as biochemical. Conditions: for Reversibility of MAO-B inhibition: dialysis experiment; for Relative MAO-B activity, dialyzed (AD) / Relative MAO-B activity, undialyzed (AU): ~2 × IC50 (DM2 0.13, DM18 0.24, lazabemide 0.22, pargyline 0.28 µM), 30 min preincubation; for Relative MAO-B activity, dialyzed (AD): after dialysis. How it is done: To identify the reversibility patterns, the relative activities for samples dialyzed (AD) and for those undialyzed (AU) were compared.
By contrasting the recovery results of samples that had been dialyzed (AD) and undialyzed (AU), reversibility patterns were determined.

A short description of data set [3]: MTT cytotoxicity test on Vero cells. It is filed as cell-based, African green monkey. The settings on record: African green monkey, Vero cells, MTT. On the procedure: (§3) Vero cells were treated to various doses (10–500 µg/mL) for 48 h, and relative cell viability was determined by measuring the absorbance at 570 nm with an ELISA microplate.
(§4) Cytotoxicity study of the lead molecule DM2 was carried out as previously described and as in Supplementary Materials described shortly.
(§5) Text S1. Supplementary procedure for toxicity evaluation
(§6) The cell line of Vero (African green monkey kidney cells) was procured from NCCS (Pune, India) and was grown in liquid medium (DMEM) containing 100 ug/mL penicillin, 100 µg/mL streptomycin, and 10% Fetal Bovine Serum (FBS) and preserved under an atmosphere of 5% CO2 at […]
(§7) The DM2 was assayed for in vitro cytotoxicity by MTT assay using the cultured Vero cells.
(§8) Briefly, the cultured Vero cells were produced by cell dissociation with trypsin (trypsinization), collectively in a 15 mL tube. At a density of 1×10^5 cells/mL cells/well (200 µL), the cells were plated for 24-48 h at 37°C into 96-well tissue culture plate in DMEM medium containing 10 % FBS and 1% antibiotic solution. The wells were washed with sterile phosphate buffered saline (PBS) and further allowed to react with varying concentrations of the DM2 in a serum free DMEM medium. The samples were triplicated and the cells were kept for incubation at 37°C for 24 h in a humidified 5% CO2 incubator. MTT (20 µL of 5 mg/mL) was added into each well after the incubation and the cells were incubated for another 2-4 h. The end point was determined by the purple precipitation, which was clearly seen under an inverted microscope. At the end, the medium along with MTT (220 µL) were used for the aspiration of the wells and later washed with 1X PBS (200 µL). In order to dissolve formazan crystals, DMSO (100 µL) was added to the plate with shaking for 5 min. The absorbance at 570 nm was measured using a micro plate reader (Thermo Fisher Scientific, USA). The IC50 value and the percentage cell viability was calculated using GraphPad Prism 8.0 software (USA).

The test system of another data set is Vero cells. Kind of data set: MTT cytotoxicity test on Vero cells. It counts as cell-based, African green monkey. The settings on record: 300 µg/mL, 48 h, phase contrast microscope. On the procedure: as §3, §4, §5, §6, §7, §8
Another data set concerns the target AChE (Electrophorus electricus, UniProt O42275). Put plainly: AChE inhibition (colorimetric, acetylthiocholine iodide). It is filed as biochemical. The settings on record: read-out: Residual activity at 10 µM (%) AChE. On the procedure:
(§9) The AChE and BChE inhibitory activities were measured by continuous colorimetric determination method, in the presence of 0.5 mM acetylthiocholine iodide (ACTI) and butyrylthiocholine iodide […]
POP, K LAB, Daejeon, Korea). After adding the substrate, 0.5 mM 5,5-dithiobis (2-nitrobenzoic acid) (DTNB) was added as the color development solution. The BACE-1 inhibitory activity was evaluated by β-secretase (BACE1) activity detection kit (Sigma-Aldrich, St. Louis, Mo, USA) using a fluorescence spectrometer (FS-2, Scinco, Seoul, Korea).
64. […] A new and rapid colorimetric determination of acetylcholinesterase activity. Biochem. Pharmacol. 7, 88-95. […]

The target in another data set is BChE (Equus caballus, UniProt P81908). Kind of data set: biochemical. Conditions: read-out: Residual activity at 10 µM (%) BChE. On the procedure: as §9
(§10) POP, K LAB, Daejeon, Korea). After adding the substrate, 0.5 mM 5,5-dithiobis (2-nitrobenzoic acid) (DTNB) was added as the color development solution. The BACE-1 inhibitory activity was evaluated by β-secretase (BACE1) activity detection kit (Sigma-Aldrich, St. Louis, Mo, USA) using a fluorescence spectrometer (FS-2, Scinco, Seoul, Korea). […]

The target in another data set is T3, BACE-1 (Homo sapiens, UniProt P56817).
T3 construct: purchased Sigma-Aldrich
Kind of data set: BACE-1 inhibition (β-secretase activity detection kit). It counts as biochemical. The settings on record: 10 µM compound; read-out: Residual activity at 10 µM (%) BACE-1. How it is done:
as §9, §10

Data set [4] deals with T2, MAO-B. Put plainly: MAO-B inhibition assay (recombinant enzyme, benzylamine substrate). The settings on record: for remaining activity at 10 µM: 10 µM compound, read-out: Residual Activity at 10 µM (%) MAO-B; for remaining activity at 10 µM / IC50: recombinant MAO-B, benzylamine 0.3 mM; for IC50: read-out: IC50 (µM) MAO-B. It is filed as biochemical. On the procedure: as §1, §2

[5] abbreviates: IC50 MAO-A divided by IC50 MAO-B.

Sequence of BChE (P81908 whole entry): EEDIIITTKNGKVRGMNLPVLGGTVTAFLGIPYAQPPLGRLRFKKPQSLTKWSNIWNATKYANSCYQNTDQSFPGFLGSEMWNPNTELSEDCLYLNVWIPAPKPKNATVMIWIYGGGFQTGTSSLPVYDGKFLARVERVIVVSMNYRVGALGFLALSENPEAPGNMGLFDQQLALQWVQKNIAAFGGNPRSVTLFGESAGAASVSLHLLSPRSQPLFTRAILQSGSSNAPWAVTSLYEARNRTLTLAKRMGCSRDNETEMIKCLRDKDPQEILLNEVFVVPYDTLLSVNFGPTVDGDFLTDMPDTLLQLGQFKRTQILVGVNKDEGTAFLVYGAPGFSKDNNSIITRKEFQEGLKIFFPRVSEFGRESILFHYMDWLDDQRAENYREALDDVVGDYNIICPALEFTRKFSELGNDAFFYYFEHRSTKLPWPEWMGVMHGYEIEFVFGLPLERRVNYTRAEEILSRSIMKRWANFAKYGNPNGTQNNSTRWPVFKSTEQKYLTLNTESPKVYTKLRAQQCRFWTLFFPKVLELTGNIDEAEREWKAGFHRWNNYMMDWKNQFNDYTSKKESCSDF
T3 sequence (P56817 46-501): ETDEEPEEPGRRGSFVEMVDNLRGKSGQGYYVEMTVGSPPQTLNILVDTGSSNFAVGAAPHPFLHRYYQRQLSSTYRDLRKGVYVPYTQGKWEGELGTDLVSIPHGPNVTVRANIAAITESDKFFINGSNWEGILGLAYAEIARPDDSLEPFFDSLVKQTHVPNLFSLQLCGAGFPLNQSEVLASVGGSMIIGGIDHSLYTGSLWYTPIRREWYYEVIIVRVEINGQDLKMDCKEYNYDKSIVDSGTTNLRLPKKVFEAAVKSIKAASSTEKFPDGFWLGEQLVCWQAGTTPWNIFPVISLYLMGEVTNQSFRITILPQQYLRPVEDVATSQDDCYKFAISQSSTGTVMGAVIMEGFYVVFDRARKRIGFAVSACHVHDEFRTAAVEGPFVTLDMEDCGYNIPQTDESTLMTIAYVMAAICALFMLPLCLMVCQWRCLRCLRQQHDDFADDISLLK
Sequence of AChE (O42275 24-633): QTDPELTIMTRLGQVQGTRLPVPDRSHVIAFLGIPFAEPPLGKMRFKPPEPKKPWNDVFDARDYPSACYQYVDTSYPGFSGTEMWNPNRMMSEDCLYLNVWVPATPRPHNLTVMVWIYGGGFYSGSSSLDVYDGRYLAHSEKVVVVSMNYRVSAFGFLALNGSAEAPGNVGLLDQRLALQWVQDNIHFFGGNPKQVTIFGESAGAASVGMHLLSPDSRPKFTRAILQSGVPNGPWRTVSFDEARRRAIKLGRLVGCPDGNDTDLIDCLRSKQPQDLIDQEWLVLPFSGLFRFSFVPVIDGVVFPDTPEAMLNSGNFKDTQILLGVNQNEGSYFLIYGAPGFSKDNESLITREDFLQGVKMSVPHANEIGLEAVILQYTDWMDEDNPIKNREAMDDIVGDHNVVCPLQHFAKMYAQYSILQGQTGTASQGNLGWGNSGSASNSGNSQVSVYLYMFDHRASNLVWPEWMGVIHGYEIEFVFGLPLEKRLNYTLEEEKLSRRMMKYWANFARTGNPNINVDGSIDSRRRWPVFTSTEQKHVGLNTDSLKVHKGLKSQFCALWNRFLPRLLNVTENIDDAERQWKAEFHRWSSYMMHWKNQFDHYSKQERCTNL

As for `COc1ccc(C(=O)/C=C/c2ccccc2Cl)c(OC)c1` [DM2], on MAO-A, the remaining activity at 10 µM came out at 41.5 ± 1.59% and the IC50 was 6.29 ± 0.432 µM. Besides, on MAO-B [1], the “Inhibition pattern of MAO-B” value is reported as “competitive inhibitors” and affinity was put at a Ki of 32 ± 4 nM. For the same compound, on MAO-B [2], the “Reversibility of MAO-B inhibition” value is “reversible”; the “Relative MAO-B activity, dialyzed (AD)” value turned out to be 74.0%; the “Relative MAO-B activity, undialyzed (AU)” value amounted to 36.0%. The IC50 at 48 h in [3] (Vero cells (kidney epithelial cells), 10–500 µg/mL, read-out: IC50 (Vero cell viability)) turned out to be 183 µg/mL (≈ 605 µM). Besides, the viability at 48 h, 100 µg/mL in [3] (100 µg/mL, read-out: Cells alive (relative cell viability)) is 80%. For the same compound, the “Morphological observation of Vero cells” value in the data set with Vero cells is “cytotoxicity was evident in cell shrinkage and blebbing, and cellular density decreased”. Moreover, the remaining activity at 10 µM at AChE is 71.9 ± 2.87%. Besides, the remaining activity at 10 µM on BChE is 64.16 ± 0.44%. The remaining activity at 10 µM at BACE-1 worked out at 100.5 ± 0.18%.

On to `COc1ccc(C(=O)/C=C/c2ccc(Br)cc2)cc1OC` [DM17], for which the remaining activity at 10 µM at MAO-A was found to be 96.88 ± 0.88%; at MAO-B [4], 13.8 ± 0.61%; on AChE, 81.8 ± 6.31%; on BChE it was 68.9 ± 1.57%; at BACE-1, 100.03 ± 0.04%. For the same compound, the values for the IC50 on MAO-A and at MAO-B [4] were over 40 µM and 0.146 ± 0.041 µM, respectively. In addition, at MAO-B [4] (setting [5]), the “SI (selectivity index for MAO-B as compared to MAO-A)” value is over 273.97.

Take `COc1ccc(C(=O)/C=C/c2ccccc2F)cc1OC` [DM18]: at MAO-A, the remaining activity at 10 µM came out at 100 ± 0.01% and the IC50 was over 40 µM. In addition, at MAO-B [4], the remaining activity at 10 µM was 8.87 ± 1.08% and the IC50 came to 0.118 ± 0.036 µM. The “SI (selectivity index for MAO-B as compared to MAO-A)” value on MAO-B [4] (setting [5]) was over 338.98. At MAO-B [4] (ortho-F (DM18) versus meta-F (DM19)), the “Times more MAO-B inhibition than meta-F analogue DM19” value was 3.75. Further, on MAO-B [1], the “Inhibition pattern of MAO-B” value is “competitive inhibitors” and affinity was put at a Ki of 45 ± 1 nM. For the same compound, at MAO-B [2], the “Reversibility of MAO-B inhibition” value was “reversible”; the “Relative MAO-B activity, dialyzed (AD)” value came out at 76.6%; the “Relative MAO-B activity, undialyzed (AU)” value came to 40.1%. At AChE, the remaining activity at 10 µM stood at 78.5 ± 4.89%. Besides, the remaining activity at 10 µM at BChE was found to be 59.5 ± 4.08%. The remaining activity at 10 µM on BACE-1 was determined as 99.94 ± 0.01%.

For `COc1ccc(C(=O)/C=C/c2cccc(F)c2)cc1OC` [DM19], the remaining activity at 10 µM on MAO-A was found to be 93.7 ± 7.16%; on MAO-B [4], 3.94 ± 1.76%; on AChE it was 70 ± 2.02%; at BChE it was 103 ± 8.13%; at BACE-1 it was 99.86 ± 0.12%. Besides, the half-inhibitory concentration (IC50) at MAO-A was over 40 µM; at MAO-B [4], 0.45 ± 0.071 µM. For the same compound, the “SI (selectivity index for MAO-B as compared to MAO-A)” value at MAO-B [4] (setting [5]) is over 88.89.

Consider `COc1ccc(C(=O)/C=C/c2ccc(F)cc2)cc1OC` [DM20], for which the remaining activity at 10 µM came to 97.5 ± 8.95% at MAO-A; 3.7% on MAO-B [4]; 86.98 ± 0.45% on AChE; 93.1 ± 6.5% at BChE; 99.89 ± 0.08% on BACE-1. The IC50 at MAO-A was over 40 µM; on MAO-B [4], 0.483 ± 0.077 µM. The “SI (selectivity index for MAO-B as compared to MAO-A)” value on MAO-B [4] is over 83.82.
